Experimental data taken from PMC12071365, “Discovery of Boronic Acids-Based β-Lactamase Inhibitors Through In Situ Click Chemistry” (International Journal of Molecular Sciences, 2025).

How the values were obtained:
AmpC [1] = target: T1, AmpC (Escherichia coli, UniProt P00811); assay: Competitive inhibition assay with nitrocefin, Ki; assay type: biochemical; set-up: made in house; conditions: AmpC; values in nM
Protocol: (§1) The β-lactamases used in the present study were from a Clinical Biochemistry Laboratory collection (Department of Biotechnological and Applied Clinical Sciences, University of L’Aquila, L’Aquila, Italy). […] The concentration of each enzyme was determined by a Bradford assay.
(§2) The plot v0/vi versus [I] yielded a straight line of slope KM/(KM + S) × Ki.
Figure 9 Compounds synthesised and their biological evaluation. AC = Amplification coefficient. […] Light blue indicates the compounds from the AmpC screening.

AmpC [2] = target: T1, AmpC; set-up: made in house; conditions: AmpC 20 mol%; warhead 3 + alkyne cluster; 37 °C, 24 h
Protocol: Following the same conditions used for the multicomponent screening with KPC-2, the in situ click chemistry experiment was performed using AmpC as template.
(§3) Binary and multicomponent KTGS. […] The microtube was shaken at 300 rpm at 37 °C for 24 h. Reactions were transferred into a LC–MS vial and directly injected (10 µL) for liquid chromatography–mass spectrometry (LC–MS). Reactions were analysed with an Ultimate 3000 UHPLC coupled to a Q-exactive hybrid quadrupole-orbitrap mass spectrometer via an HESI-II heated electrospray ionisation source. The chromatographic separation was performed injecting a 10 µL sample volume on a Hypersil Gold C18 100 × 2.1 mm, 1.9 µm column (Thermo Fisher Scientific), kept at 30 °C eluting with 0.3 mL/min flow of ultrapure water (A) and methanol (B), both with 0.1% formic acid as mobile phase. […] A data-dependent mass spectrometric data acquisition strategy was used for full MS/DD-MS2. […] An inclusion list was eventually used to target the MS2 spectra acquisition of preferred ion species. Detection was based on calculated [M+H]^+ and [M−H]^− molecular ions with a 5 ppm accuracy tolerance for their respective ion chromatogram extraction. Peak retention time and area of detected target compounds was used for their detection and semi-quantitative evaluation in between reaction batches.
For controls (buffer and BSA), AmpC/KPC-2 is replaced with no enzyme (buffer volume 95 µL) and BSA (stock 100 µM, final concentration 5 µM, buffer volume 90 µL). Hits were identified in each cluster by mass and retention time and compared with both controls (buffer and BSA) and synthetically prepared triazoles obtained in mixtures.

AmpC [3] = target: T1, AmpC; assay: Binary in situ click chemistry between 3 and Al-12, with or without SM23; set-up: made in house; conditions: binary 3 + Al-12; AmpC 20 mol%; SM23 1 mol%
Protocol: as §3
For controls (buffer and BSA), AmpC/KPC-2 is replaced with no enzyme (buffer volume 95 µL) and BSA (stock 100 µM, final concentration 5 µM, buffer volume 90 µL). […]

AmpC [4] = target: T1, AmpC; assay: LC-MS t-SIM detection of boronic acids incubated with AmpC; set-up: made in house; conditions: 24 h, 37 °C
Description: Given that boronic acids act as transition-state inhibitors by binding the catalytic serine of β-lactamases through a reversible covalent bond, we aimed to determine whether the in situ click chemistry reaction products were quantitatively detected during LC–MS analysis. Although boronic acids are reversible binders, their fast on–slow off behaviour raised concerns that triazole product formation might be underestimated due to covalent adducts forming with the protein target. To investigate this, compound 10a, warhead 3, and compounds 8 and 9 were incubated with AmpC (1:1 or 1:5 protein:compound ratio), and their detection was monitored over 24 h (Figure 10). […] The percentage of boronic acids detected was estimated using peak area measurements in the LC–MS-targeted SIM mode, with quantification being performed using calibration curves. The experiments were conducted at 37 °C in a 95:5 sodium phosphate 50 mM pH 7.0:DMSO mixture.
Figure 10 The % of detection of 10a (grey box), 3 (yellow box), 8 (green box), and 9 (blue box) over the course of the 24 h using the t-SIM method. Each cpd was tested in presence of 20% mol of AmpC or stoichiometric amount of AmpC. Each box includes 4 columns corresponding to % boronic acid detected at a certain time point (0, 8, 16, and 24 h).

[5] = test system: C[C@@H](O)[C@H]1C(=O)N2C(C(=O)O)=C(S[C@@H]3CN[C@H](C(=O)N(C)C)C3)[C@H](C)[C@H]12; assay: purified protein, by the assay type; conditions: other: IMP-1, HEPES 20 mM pH 7.0 + 20 µM Zn
SHV-12 [6] = target: T2, SHV-12 (Klebsiella pneumoniae, UniProt P0AD64, E235K/G234S/L31Q); assay: % inhibition at fixed concentration; assay type: biochemical; conditions: SHV-12, class A; inhibitor 200 µM; substrate NCF
ADC-25 = ADC-25 (Acinetobacter baumannii, UniProt A8QIF8); assay: % inhibition at fixed concentration; assay type: biochemical
Protocol: (§4) Selection of an appropriate warhead-bearing reagent is crucial for achieving a successful in situ click chemistry. Thus, we assessed the inhibitory activity of the selected warheads against a pool of different β-lactamases to verify their binding specificity for the target. The affinity (inhibitory ability) of 2-4 against 12 representative β-lactamases from class A, B, C, and D was assessed as the percentage of inhibition at a fixed concentration of 200 µM (Table 1).
as §1, §2
(§5) For the β-lactamases test at a fixed concentration previously reported in Table 1, the following conditions were applied (Table 3): […]

CMY-2 = CMY-2 (Klebsiella pneumoniae, UniProt Q48434); assay: % inhibition at fixed concentration; assay type: biochemical
Protocol: as §4, §1, §2, §5

CTX-M-15 = target: T3, CTX-M-15 (Escherichia coli, UniProt Q9EXV5); assay: % inhibition at fixed concentration; assay type: biochemical
T3 construct: made in house
Protocol: as §4, §1, §2, §5

IMP-1 = target: T4, IMP-1 (Serratia marcescens, UniProt P52699); assay: % inhibition at fixed concentration; assay type: biochemical
T4 construct: made in house
Protocol: as §4, §1, §2, §5

KPC-2 [7] = target: T5, KPC-2 (Klebsiella pneumoniae, UniProt Q9F663); assay: % inhibition at fixed concentration; assay type: biochemical
T5 construct: made in house
Protocol: as §4, §1, §2, §5

KPC-53 [8] = target: T6, KPC-53 (Klebsiella pneumoniae, UniProt Q9F663, DUP166-167/H272Y); assay: % inhibition at fixed concentration; assay type: biochemical
Protocol: as §4, §1, §2, §5

OXA-24 = OXA-24 (Acinetobacter baumannii, UniProt Q8RLA6); assay: % inhibition at fixed concentration; assay type: biochemical
Protocol: as §4, §1, §2, §5

OXA-48 [9] = target: T7, OXA-48 (Klebsiella pneumoniae, UniProt Q6XEC0); assay: % inhibition at fixed concentration; assay type: biochemical; conditions: OXA-48, class D; inhibitor 200 µM; substrate IMI
Protocol: as §4, §1, §2, §5

VIM-1 = target: T8, VIM-1 (Pseudomonas aeruginosa, UniProt A0A0F7KYQ8); assay: % inhibition at fixed concentration; assay type: biochemical
T8 construct: made in house
Protocol: as §4, §1, §2, §5

KPC-2 [10] = target: T5, KPC-2; assay: Competitive inhibition assay with nitrocefin, Ki; assay type: biochemical
Protocol: as §1, §2
AC = Amplification coefficient. In the AC column, between brackets reports the regioisomeric ratio observed (1,4- vs. 1,5-) and bold reports the synthesised regioisomer. Light blue indicates the compounds obtained from the KPC-2 screening.

KPC-2 [11] = target: T5, KPC-2; set-up: method as in PMID 35792385; conditions: ref [58]; cited from earlier work
AmpC [12] = target: T1, AmpC; assay: % inhibition at fixed concentration; assay type: biochemical; set-up: made in house
Description: Selection of an appropriate warhead-bearing reagent is crucial for achieving a successful in situ click chemistry. Thus, we assessed the inhibitory activity of the selected warheads against a pool of different β-lactamases to verify their binding specificity for the target. […]
as §1, §2, §5

NDM-1 = NDM-1 (Klebsiella pneumoniae, UniProt C7C422); assay: % inhibition at fixed concentration; assay type: biochemical; set-up: made in house
Protocol: as §4, §1, §2, §5

[13] = test system: O=C(Cc1cccs1)N[C@@H]1C(=O)N2C(C(=O)O)=C(/C=C/c3ccc([N+](=O)[O-])cc3[N+](=O)[O-])CS[C@H]12; assay: KM of reporter substrate (Hanes-Woolf); assay type: biochemical; conditions: pH 7.0
Protocol: (§6) The β-lactamases used in the present study were from a Clinical Biochemistry Laboratory collection (Department of Biotechnological and Applied Clinical Sciences, University of L’Aquila, L’Aquila, Italy). All enzymes show a purity degree of higher than 95%. The concentration of each enzyme was determined by a Bradford assay.

AmpC [14] = target: T1, AmpC; conditions: read-out: KM substrate; pH 7
Protocol: as §1

KPC-53 [15] = target: T6, KPC-53; conditions: read-out: KM substrate, NaPi 50 mM pH 7.0
Protocol: as §6

SHV-12 [16] = target: T2, SHV-12; conditions: read-out: KM substrate, NaPi 50 mM pH 7.0
Protocol: as §6

OXA-48 [17] = target: T7, OXA-48; assay: KM of reporter substrate (Hanes-Woolf); assay type: biochemical; conditions: NaPi 50 mM pH 7.0
Protocol: as §6

T1 sequence (P00811 20-377): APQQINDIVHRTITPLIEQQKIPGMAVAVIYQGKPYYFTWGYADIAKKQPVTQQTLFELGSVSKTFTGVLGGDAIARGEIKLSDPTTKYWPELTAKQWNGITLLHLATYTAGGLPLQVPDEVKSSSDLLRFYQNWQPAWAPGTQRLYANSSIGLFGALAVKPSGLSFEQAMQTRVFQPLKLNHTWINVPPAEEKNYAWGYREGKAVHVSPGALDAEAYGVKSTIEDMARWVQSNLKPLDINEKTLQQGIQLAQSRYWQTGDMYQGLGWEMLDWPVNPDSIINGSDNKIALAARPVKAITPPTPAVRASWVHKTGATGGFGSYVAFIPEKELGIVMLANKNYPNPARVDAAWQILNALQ
T3 sequence (Q9EXV5 entry or part of it): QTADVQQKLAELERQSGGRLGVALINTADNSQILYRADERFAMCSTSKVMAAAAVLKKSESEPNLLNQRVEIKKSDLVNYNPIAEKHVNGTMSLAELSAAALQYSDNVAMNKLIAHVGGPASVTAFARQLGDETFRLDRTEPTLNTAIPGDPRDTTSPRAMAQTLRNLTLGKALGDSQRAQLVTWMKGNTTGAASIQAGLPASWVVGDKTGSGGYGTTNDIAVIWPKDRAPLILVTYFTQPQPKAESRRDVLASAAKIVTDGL

O=S(=O)(NCc1cnnn1Cc1cccc(B(O)O)c1)C1CCCCC1 [10a]
Ki (AmpC [1]): 140 nM
AC (amplification coefficient) (AmpC [2]): 5-6
AC 10/10a (AmpC [3]): 1-2
% boronic acid detected (remaining) (AmpC [4]; 20 mol% AmpC, sodium phosphate pH 7.0:DMSO 95:5): 83%
boronic acid level detected (AmpC [4]; stoichiometric AmpC): remained stable

IMP-1 (Serratia marcescens)
Km [5]: 30 ± 1 µM µM

[N-]=[N+]=NCc1cccc(B(O)O)c1 [compound 3, (3-(azidomethyl)phenyl)boronic acid]
% of inhibition (SHV-12 [6]): 38%
inhibition at 200 µM (ADC-25): 67%
inhibition at 200 µM (CMY-2): 79%
inhibition at 200 µM (CTX-M-15): 42%
inhibition at 200 µM (IMP-1): 11%
inhibition at 100 µM (KPC-2 [7]): 76%
inhibition at 200 µM (KPC-53 [8]): 65%
inhibition at 200 µM (OXA-24): 24%
inhibition at 200 µM (OXA-48 [9]): 2%
inhibition at 200 µM (VIM-1): 24%
Ki (KPC-2 [10]): 2.3 µM
activity vs. KPC-2 (KPC-2 [11]): sub-µM
inhibition at 100 µM (AmpC [12]): 100%
% of inhibition (AmpC [12]; AmpC, class C, inhibitor 100 µM, substrate NCF): completely inhibits
inhibition at 200 µM (NDM-1): 20%
Ki (AmpC [1]): 700 nM

[N-]=[N+]=NCc1ccccc1B(O)O [compound 2]
% of inhibition (SHV-12 [6]): 14%
inhibition at 200 µM (ADC-25): 27%
inhibition at 200 µM (CMY-2): 19%
inhibition at 200 µM (CTX-M-15): 0%
inhibition at 200 µM (IMP-1): 12%
inhibition at 100 µM (KPC-2 [7]): 35%
inhibition at 200 µM (KPC-53 [8]): 54%
inhibition at 200 µM (OXA-24): 20%
inhibition at 200 µM (OXA-48 [9]): < 1%
inhibition at 200 µM (VIM-1): 23%
inhibition at 100 µM (AmpC [12]): 57%
inhibition at 200 µM (NDM-1): 23%

ADC-25 (Acinetobacter baumannii)
Km [13]: 120 ± 3 µM µM

O=C(Cc1cccs1)N[C@@H]1C(=O)N2C(C(=O)O)=C(/C=C/c3ccc([N+](=O)[O-])cc3[N+](=O)[O-])CS[C@H]12 [NCF, Nitrocefin]
Km (AmpC [14]): 118 ± 2 µM
Km (KPC-53 [15]): 106 ± 2 µM
Km (SHV-12 [16]): 50 ± 3 µM

C[C@@H](O)[C@H]1C(=O)N2C(C(=O)O)=C(SCCN=CN)C[C@H]12 [IMI, Imipenem]
Km (OXA-48 [17]): 13 ± 1 µM
